Reference: patent US8492559B2, “Substituted indole compounds” (Gruenenthal GmbH, priority 2009, dated 2013)

These compounds were tested against T1, human B1R receptor (hB1R) (Homo sapiens, UniProt P46663) (assay: Functional investigation on the bradykinin 1 receptor (B1R), FLIPR Ca2+ assay, hB1R cells). Details: 10 μM test substance; CHO K1 cells with human B1R; agonist Lys-Des-Arg9 bradykinin; % of maximum achievable inhibition; 10 µM.
T1 construct: expressed in transfected cells; host or cells: CHO K1 cells
T1 sequence (P46663 1-353): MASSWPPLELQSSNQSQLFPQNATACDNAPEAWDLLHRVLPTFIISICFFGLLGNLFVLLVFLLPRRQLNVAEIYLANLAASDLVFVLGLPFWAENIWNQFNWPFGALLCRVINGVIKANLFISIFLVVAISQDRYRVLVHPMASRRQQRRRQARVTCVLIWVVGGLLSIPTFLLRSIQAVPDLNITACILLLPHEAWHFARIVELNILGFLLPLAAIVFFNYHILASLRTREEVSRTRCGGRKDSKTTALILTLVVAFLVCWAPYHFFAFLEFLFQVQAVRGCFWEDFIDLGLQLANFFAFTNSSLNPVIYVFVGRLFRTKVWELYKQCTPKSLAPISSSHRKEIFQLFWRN
Assay type: cell-based
Description: The agonistic or antagonistic action of substances can be quantified on the bradykinin 1 receptor (B1R) of the human and rat species with ectopically expressing cell lines (CHO K1 cells) and with the aid of a Ca^2+-sensitive dye (Fluo-4) using a fluorescent imaging plate reader (FLIPR). The indication in % activation is based on the Ca^2+ signal after addition of Lys-Des-Arg^9 bradykinin (0.5 nM) or Des-Arg^9 bradykinin (100 nM). Antagonists lead to a suppression of the Ca^2+ influx following administration of the agonist. The % inhibition in comparison with the maximum achievable inhibition is indicated.
1. Functional Investigation on the Bradykinin 1 Receptor (B1R)
The agonistic or antagonistic action of substances can be determined on the bradykinin 1 receptor (B1R) of the human and rat species with the following assay. According to this assay, the Ca^2+ inflow through the channel is quantified with the aid of a Ca^2+-sensitive dye (Fluo-4 type, Molecular Probes Europe BV, Leiden, Netherlands) in a fluorescent imaging plate reader (FLIPR, Molecular Devices, Sunnyvale, USA).
Chinese hamster ovary cells (CHO K1 cells) which are stably transfected with the human B1R gene (hB1R cells) or the B1R gene of the rat (rB1R cells) are used. For functional investigations these cells are plated-out onto black 96-well plates with a clear base (BD Biosciences, Heidelberg, Germany or Greiner, Frickenhausen, Germany) in a density of 20,000-35,000 cells/well. Overnight the cells are incubated at 37° C. and 5% CO2 in culture medium (hB1R cells: Ham's Nutrient Mixture F12, Gibco Invitrogen GmbH, Karlsruhe, Germany or DMEM, Sigma-Aldrich, Taufkirchen, Germany; rB1R cells: D-MEM/F12, Gibco Invitrogen, Karlsruhe, Germany) with 10 vol. % FBS (foetal bovine serum, Gibco Invitrogen GmbH, Karlsruhe, Germany or PAN Biotech GmbH, Aidenbach, Germany).
On the following day the cells are loaded with 2.13 μM Fluo-4 (Molecular Probes Europe BV, Leiden, Netherlands) in HBSS buffer (Hank's buffered saline solution, Gibco Invitrogen GmbH, Karlsruhe, Germany) with 2.5 mM probenecid (Sigma-Aldrich, Taufkirchen, Germany) and 10 mM HEPES (Sigma-Aldrich, Taufkirchen, Germany) for 60 min at 37° C. The plates are subsequently washed twice with HBSS buffer, and HBSS buffer which additionally contains 0.1% BSA (bovine serum albumin; Sigma-Aldrich, Taufkirchen, Germany), 5.6 mM glucose and 0.05% gelatine (Merck KGaA, Darmstadt, Germany) is added. After a further incubation of 20 minutes at room temperature, the plates are inserted into the FLIPR for Ca^2+ measurement.
Alternatively they are washed with buffer A (15 mM HEPES, 80 mM NaCl, 5 mM KCl, 1.2 mM CaCl2, 0.7 mM MgSO4, 2 g/l glucose, 2.5 mM probenecid) and loaded with buffer A with added 2.5 μM Fluo-4 and 0.025% Pluronic F127 (Sigma-Aldrich, Taufkirchen, Germany). The cells are then washed twice with buffer A and incubated for 30 minutes with buffer A, which additionally contains 0.05% BSA and 0.05% gelatine, at room temperature and then used for Ca^2+ measurement in the FLIPR. The Ca^2+-dependent fluorescence is measured here before and after addition of substances (λex=488 nm, λem=540 nm). The quantification is performed by measuring the highest fluorescence intensity (FC, fluorescence counts) over time.
The FLIPR protocol comprises two additions of substance. Test substances (10 μM) are first pipetted onto the cells and the Ca^2+ inflow is compared with the control (hB1R: Lys-Des-Arg^9 bradykinin>=50 nM; rB1R: Des-Arg^9 bradykinin 10 μM). The value in % activation based on the Ca^2+ signal after addition of Lys-Des-Arg^9 bradykinin (>=50 nM) or Des-Arg^9 bradykinin (10 μM) is obtained therefrom. After incubation for 10-20 minutes, Lys-Des-Arg^9 bradykinin (hB1R) or Des-Arg^9 bradykinin (rB1R) is applied in the EC80 concentration and the inflow of Ca^2+ is likewise determined.
Antagonists lead to a suppression of the Ca^2+ inflow. The % inhibition in comparison with the maximum achievable inhibition is calculated. […]

Row | B1R antagonism, human [10 μM] % inhibition | Compound
1 | 99% | O=C(CCn1ccc2ccc(N3Cc4cccc(Cl)c4C3=O)cc21)N1CCC2(CC1)CCN(c1ccncc1)CC2 [G_CC-67, 7-Chloro-2-[1-[3-oxo-3-(3-pyridin-4-yl-3,9-diazaspiro[5.5]undecan-9-yl)-propyl]-1H-indol-6-yl]-2,3-dihydro-isoindol-1-one]

Same assay, conditions: CHO-K1, 10 μM test substance; CHO K1 cells with human B1R; agonist Lys-Des-Arg9 bradykinin; % of maximum achievable inhibition; read-out: B1R antagonism, human [10 μM] % inhibition

Row | inhibition at 10 µM | Compound
2 | 99% | O=C(Cn1ccc2ccc(N3Cc4cccc(Cl)c4C3=O)cc21)N1CCC2(CCC(N3CCC3)CC2)CC1 [Compound G-21, 2-(1-(2-(9-(Azetidin-1-yl)-3-azaspiro[5.5]undecan-3-yl)-2-oxoethyl)-1H-indol-6-yl)-7-chloroisoindolin-1-one]
3 | 100% | COc1cc(C)c(S(=O)(=O)Nc2cccc3ccn(CC(=O)N4CCC5(CCC(Oc6ccncc6)CC5)CC4)c23)c(C)c1 [Compound G-22, 4-Methoxy-2,6-dimethyl-N-(1-(2-oxo-2-(9-(pyridin-4-yloxy)-3-azaspiro[5.5]undecan-3-yl)ethyl)-1H-indol-7-yl)benzenesulfonic acid amide]
4 | 100% | Cn1c2c(c3c(Cl)cccc31)C(=O)N(c1ccc3ccn(CC(=O)N4CCC5(CC4)CCN(c4ccncc4)CC5)c3c1)C2 [Compound G-23, 8-Chloro-4-methyl-2-[1-[2-oxo-2-(9-pyridin-4-yl-3,9-diazaspiro[5.5]undecan-3-yl)-ethyl]-1H-indol-6-yl]-3,4-dihydro-2H-pyrrolo[3,4-b]indol-1-one]
5 | 98% | COc1cc(C)c(S(=O)(=O)NCc2cccc3ccn(CC(=O)N4CCC5(CC4)CCN(c4ccncc4)CC5)c23)c(C)c1 [Compound G-24, 4-Methoxy-2,6-dimethyl-N-[[1-[2-oxo-2-(9-pyridin-4-yl-3,9-diazaspiro[5.5]undecan-3-yl)-ethyl]-1H-indol-7-yl]-methyl]-benzenesulfonic acid amide]
6 | 98% | Cc1cccc2c1C(=O)N(c1ccc3ccn(CC(=O)N4CCC5(CC4)CCN(c4ccncc4)CC5)c3c1)C2 [Compound G-26, 7-Methyl-2-[1-[2-oxo-2-(9-pyridin-4-yl-3,9-diazaspiro[5.5]undecan-3-yl)-ethyl]-1H-indol-6-yl]-2,3-dihydro-isoindol-1-one]
7 | 96% | Cc1ccc2n1C(=O)N(c1ccc3ccn(CC(=O)N4CCC5(CC4)CCN(c4ccncc4)CC5)c3c1)C2 [Compound G-27, 5-Methyl-2-[1-[2-oxo-2-(9-pyridin-4-yl-3,9-diazaspiro[5.5]undecan-3-yl)-ethyl]-1H-indol-6-yl]-1,2-dihydro-pyrrolo[2,1-e]imidazol-3-one]
8 | 80% | O=C(Cn1ccc2ccc(N3CCn4c(c(Cl)c5ccccc54)C3=O)cc21)N1CCC2(CC1)CCN(c1ccncc1)CC2 [Compound G-31, 10-Chloro-2-[1-[2-oxo-2-(9-pyridin-4-yl-3,9-diazaspiro[5.5]undecan-3-yl)-ethyl]-1H-indol-6-yl]-3,4-dihydro-2H-pyrazino[1,2-a]indol-1-one]
9 | 93% | O=C(Cn1ccc2ccc(N3CCn4ccc(Cl)c4C3=O)cc21)N1CCC2(CC1)CCN(c1ccncc1)CC2 [Compound G-33, 8-Chloro-2-[1-[2-oxo-2-(9-pyridin-4-yl-3,9-diazaspiro[5.5]undecan-3-yl)-ethyl]-1H-indol-6-yl]-3,4-dihydro-2H-pyrrolo[1,2-a]pyrazin-1-one]
10 | 46% | COc1cc(C)c(S(=O)(=O)Nc2ccc3ccn(CC(=O)N4CCC(N5CCN(C)CC5)CC4)c3c2)c(C)c1 [G_CC-2, 4-Methoxy-2,6-dimethyl-N-[1-[2-[4-(4-methyl-piperazin-1-yl)-piperidin-1-yl]-2-oxo-ethyl]-1H-indol-6-yl]-benzenesulfonic acid amide]
11 | 26% | Cc1cc(S(=O)(=O)Nc2ccc3ccn(CC(=O)N4CCN(CC5CCN(C)CC5)CC4)c3c2)c(C)cc1Cl [G_CC-8, 4-Chloro-2,5-dimethyl-N-[1-[2-[4-[(1-methyl-piperidin-4-yl)-methyl]-piperazin-1-yl]-2-oxo-ethyl]-1H-indol-6-yl]-benzenesulfonic acid amide]
12 | 73% | COc1cc(C)c(S(=O)(=O)Nc2cccc3ccn(CC(=O)N4CCC5(CC4)CCN(Cc4ccccc4)C5=O)c23)c(C)c1 [G_CC-32, N-[1-[2-(3-Benzyl-4-oxo-3,8-diazaspiro[4.5]decan-8-yl)-2-oxo-ethyl]-1H-indol-7-yl]-4-methoxy-2,6-dimethyl-benzenesulfonic acid amide]
13 | 100% | COc1cc(C)c(S(=O)(=O)Nc2cccc3ccn(CCC(=O)N4CCN(CC5CCN(C)CC5)CC4)c23)c(C)c1 [G_CC-43, 4-Methoxy-2,6-dimethyl-N-[1-[3-[4-[(1-methyl-piperidin-4-yl)-methyl]-piperazin-1-yl]-3-oxo-propyl]-1H-indol-7-yl]-benzenesulfonic acid amide]
14 | 100% | COc1cc(C)c(S(=O)(=O)Nc2cccc3ccn(CCC(=O)NCCC4CCN(c5ccncc5)CC4)c23)c(C)c1 [G_CC-47, 3-[7-[[(4-Methoxy-2,6-dimethyl-phenyl)sulfonyl]amino]-1H-indol-1-yl]-N-[2-(1-pyridin-4-yl-piperidin-4-yl)-ethyl]-propionamide]
15 | 99% | COc1cc(C)c(S(=O)(=O)Nc2cccc3ccn(CCC(=O)N4CCC5(CC4)CCN(c4ccncc4)CC5)c23)c(C)c1 [G_CC-54, 4-Methoxy-2,6-dimethyl-N-[1-[3-oxo-3-(3-pyridin-4-yl-3,9-diazaspiro[5.5]undecan-9-yl)-propyl]-1H-indol-7-yl]-benzenesulfonic acid amide]
16 | 94% | Cc1cc(S(=O)(=O)Nc2cccc3ccn(CCC(=O)N4CCN(CC5CCN(C)CC5)CC4)c23)c(C)cc1Cl [G_CC-62, 4-Chloro-2,5-dimethyl-N-[1-[3-[4-[(1-methyl-piperidin-4-yl)-methyl]-piperazin-1-yl]-3-oxo-propyl]-1H-indol-7-yl]-benzenesulfonic acid amide]
17 | 92% | COc1cc(C)c(S(=O)(=O)Nc2ccc3ccn(CC(=O)N(C)CCCN4CCN(c5ccncc5)CC4)c3c2)c(C)c1 [G_CC-76, 2-[6-[[(4-Methoxy-2,6-dimethyl-phenyl)sulfonyl]amino]-1H-indol-1-yl]-N-methyl-N-[3-(4-pyridin-4-yl-piperazin-1-yl)-propyl]-acetamide]
18 | 100% | COc1cc(C)c(S(=O)(=O)Nc2cccc3ccn(CC(=O)N(C)CCCN4CCN(c5ccncc5)CC4)c23)c(C)c1 [G_CC-88, 2-[7-[[(4-Methoxy-2,6-dimethyl-phenyl)sulfonyl]amino]-1H-indol-1-yl]-N-methyl-N-[3-(4-pyridin-4-yl-piperazin-1-yl)-propyl]-acetamide]
